Converted amounts (≈) assume the structure as drawn.
Tests used:
[1] = system: Staphylococcus aureus-SMITH (GC 4543); assay: acute lethal infection in mice; assay type: in vivo; settings: acute lethal infection, female CD-1 mice, intraperitoneal challenge, intravenous 30 min. after infection, 7 day survival
Method in brief: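 Intraperitoneal challenge of female CD-1 mice with a bacterial dose lethal to untreated animals within 24-48 hr; single iv treatment 30 min later, 5 mice per dose level. Survival is scored at day 7 and pooled from three experiments to give the median effective dose.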

Escherichia coli = assay: in vitro antibacterial evaluation, MIC by broth dilution; assay type: cell-based
Method in brief: (§1)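 Broth dilution per NCCLS M7-A2 in Mueller-Hinton II medium, inoculum 5×10^5 CFU/mL, antibiotic range 64-0.06 μg/mL. MIC taken as lowest concentration inhibiting growth; Gram-positive panel includes recent clinical isolates resistant to methicillin, penicillin and/or vancomycin.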

Streptococcus sp. = assay: as above; assay type: cell-based; settings: broth dilution, 18 hours at 35° C.; for MIC Streptococcus pneumoniae (ATCC 6301): strain ATCC 6301; for MIC Streptococcus pneumoniae (GC 1894): strain GC 1894; for MIC Streptococcus pyogenes (GC 4563): strain GC 4563; for MIC Streptococcus agalactiae (GC 4564): strain GC 4564; for MIC Streptococcus pneumoniae (GC 4565): strain GC 4565
Method in brief: as §1

Enterococcus sp. = assay: as above; assay type: cell-based; settings: broth dilution, 18 hours at 35° C.; for MIC Enterococcus faecalis (ATCC 29212): strain ATCC 29212; for MIC Enterococcus faecalis (GC 2242): strain GC 2242; for MIC Enterococcus faecium (GC 2243): strain GC 2243; for MIC Enterococcus faecalis (GC 2691): strain GC 2691; for MIC Enterococcus faecalis (GC 3059): strain GC 3059; for MIC Enterococcus faecalis (GC 4552): strain GC 4552; for MIC Enterococcus faecalis (GC 4553): strain GC 4553; for MIC Enterococcus faecalis (GC 4554): strain GC 4554; for MIC Enterococcus faecium (GC 4556): strain GC 4556; for MIC Enterococcus faecium (GC 4557): strain GC 4557; for MIC Enterococcus avium (GC 4558): strain GC 4558; for MIC Enterococcus faecalis (GC 6189): strain GC 6189
Method in brief: as §1

Staphylococcus sp. = assay: as above; assay type: cell-based; settings: broth dilution, 18 hours at 35° C.; for MIC Staphylococcus aureus (GC 1131): strain GC 1131
Method in brief: as §1

Compound: COc1ccc(Oc2cccc(C3OCC4OC(OC5C(CO)OC(Oc6ccc(CC7NC(=O)C(C(C)c8ccccc8)NC(=O)CNC(=O)C(CO)NC(=O)C(C(O)C8CNC(=N)N8C8OC(CO)C(O)C(O)C8O)NC(=O)C(C(O)C8CNC(=N)N8)NC7=O)cc6)C(O)C5O)C(O)C(O)C4O3)c2)cc1 (stereo not drawn) [Example 180, Cyclo[glycyl-β-methylphenylalanyl-O-[4-O-[4,6-O-[3-(4-methoxyphenoxy)benzylidene]hexopyranosyl]hexopyranosyl]tyrosyl-3-(2-iminoimidazolidin-4-yl)seryl-3-(3-hexopyranosyl-2-iminoimidazolidin-4-yl)serylseryl]]
- median effective dose (ED50), Staphylococcus aureus-SMITH (GC 4543) [1]: 0.05 mg/kg
- MIC Escherichia coli (ATCC 25922) (Escherichia coli; strain ATCC 25922, 18 hours at 35° C.): >64 µg/mL
- MIC Escherichia coli (GC 4559) (Escherichia coli; strain GC 4559, 18 hours at 35° C.): 64 µg/mL (≈ 42.5 µM)
- MIC Escherichia coli (GC 4560) (Escherichia coli; strain GC 4560, 18 hours at 35° C.): 2 µg/mL (≈ 1.33 µM)
- MIC Streptococcus pneumoniae (ATCC 6301) (Streptococcus sp.; inoculum 5×10^5 CFU/mL): <0.06 µg/mL
- MIC Streptococcus pneumoniae (GC 1894) (Streptococcus sp.; inoculum 5×10^5 CFU/mL): <0.06 µg/mL
- MIC Streptococcus pyogenes (GC 4563) (Streptococcus sp.; inoculum 5×10^5 CFU/mL): <0.06 µg/mL
- MIC Streptococcus agalactiae (GC 4564) (Streptococcus sp.; inoculum 5×10^5 CFU/mL): <0.06 µg/mL
- MIC Streptococcus pneumoniae (GC 4565) (Streptococcus sp.; inoculum 5×10^5 CFU/mL): <0.06 µg/mL
- MIC Streptococcus pneumoniae (ATCC 6301) (Streptococcus sp.): <0.06 µg/mL
- MIC Streptococcus pneumoniae (GC 1894) (Streptococcus sp.): <0.06 µg/mL
- MIC Streptococcus pyogenes (GC 4563) (Streptococcus sp.): <0.06 µg/mL
- MIC Streptococcus agalactiae (GC 4564) (Streptococcus sp.): <0.06 µg/mL
- MIC Streptococcus pneumoniae (GC 4565) (Streptococcus sp.): <0.06 µg/mL
- MIC Enterococcus faecalis (ATCC 29212) (Enterococcus sp.; inoculum 5×10^5 CFU/mL): 4 µg/mL (≈ 2.66 µM)
- MIC Enterococcus faecalis (GC 2242) (Enterococcus sp.; inoculum 5×10^5 CFU/mL): 4 µg/mL (≈ 2.66 µM)
- MIC Enterococcus faecium (GC 2243) (Enterococcus sp.; inoculum 5×10^5 CFU/mL): 2 µg/mL (≈ 1.33 µM)
- MIC Enterococcus faecalis (GC 2691) (Enterococcus sp.; inoculum 5×10^5 CFU/mL): 2 µg/mL (≈ 1.33 µM)
- MIC Enterococcus faecalis (GC 3059) (Enterococcus sp.; inoculum 5×10^5 CFU/mL): 2 µg/mL (≈ 1.33 µM)
- MIC Enterococcus faecalis (GC 4552) (Enterococcus sp.; inoculum 5×10^5 CFU/mL): 2 µg/mL (≈ 1.33 µM)
- MIC Enterococcus faecalis (GC 4553) (Enterococcus sp.; inoculum 5×10^5 CFU/mL): 2 µg/mL (≈ 1.33 µM)
- MIC Enterococcus faecalis (GC 4554) (Enterococcus sp.; inoculum 5×10^5 CFU/mL): 2 µg/mL (≈ 1.33 µM)
- MIC Enterococcus faecium (GC 4556) (Enterococcus sp.; inoculum 5×10^5 CFU/mL): 2 µg/mL (≈ 1.33 µM)
- MIC Enterococcus faecium (GC 4557) (Enterococcus sp.; inoculum 5×10^5 CFU/mL): 2 µg/mL (≈ 1.33 µM)
- MIC Enterococcus avium (GC 4558) (Enterococcus sp.; inoculum 5×10^5 CFU/mL): 2 µg/mL (≈ 1.33 µM)
- MIC Enterococcus faecalis (GC 6189) (Enterococcus sp.; inoculum 5×10^5 CFU/mL): 2 µg/mL (≈ 1.33 µM)
- MIC Enterococcus faecalis (ATCC 29212) (Enterococcus sp.): 4 µg/mL (≈ 2.66 µM)
- MIC Enterococcus faecalis (GC 2242) (Enterococcus sp.): 4 µg/mL (≈ 2.66 µM)
- MIC Enterococcus faecium (GC 2243) (Enterococcus sp.): 2 µg/mL (≈ 1.33 µM)
- MIC Enterococcus faecalis (GC 2691) (Enterococcus sp.): 2 µg/mL (≈ 1.33 µM)
- MIC Enterococcus faecalis (GC 3059) (Enterococcus sp.): 2 µg/mL (≈ 1.33 µM)
- MIC Enterococcus faecalis (GC 4552) (Enterococcus sp.): 2 µg/mL (≈ 1.33 µM)
- MIC Enterococcus faecalis (GC 4553) (Enterococcus sp.): 2 µg/mL (≈ 1.33 µM)
- MIC Enterococcus faecalis (GC 4554) (Enterococcus sp.): 2 µg/mL (≈ 1.33 µM)
- MIC Enterococcus faecium (GC 4556) (Enterococcus sp.): 2 µg/mL (≈ 1.33 µM)
- MIC Enterococcus faecium (GC 4557) (Enterococcus sp.): 2 µg/mL (≈ 1.33 µM)
- MIC Enterococcus avium (GC 4558) (Enterococcus sp.): 2 µg/mL (≈ 1.33 µM)
- MIC Enterococcus faecalis (GC 6189) (Enterococcus sp.): 2 µg/mL (≈ 1.33 µM)
- MIC Staphylococcus aureus (GC 1131) (Staphylococcus sp.; inoculum 5×10^5 CFU/mL): 2 µg/mL (≈ 1.33 µM)
- MIC Staphylococcus aureus (ATCC 29213) (Staphylococcus sp.; strain ATCC 29213): 2 µg/mL (≈ 1.33 µM)
- MIC Staphylococcus aureus (GC 1131) (Staphylococcus sp.): 2 µg/mL (≈ 1.33 µM)
- MIC Staphylococcus aureus (GC 3051) (Staphylococcus sp.; strain GC 3051): 1 µg/mL (≈ 0.664 µM)
- MIC Staphylococcus aureus (GC 3053) (Staphylococcus sp.; strain GC 3053): 2 µg/mL (≈ 1.33 µM)
- MIC Staphylococcus aureus (GC 4541) (Staphylococcus sp.; strain GC 4541): 2 µg/mL (≈ 1.33 µM)
- MIC Staphylococcus aureus (GC 4542) (Staphylococcus sp.; strain GC 4542): 2 µg/mL (≈ 1.33 µM)
- MIC Staphylococcus aureus (GC 4544) (Staphylococcus sp.; strain GC 4544): 2 µg/mL (≈ 1.33 µM)
- MIC Staphylococcus aureus (GC 4545) (Staphylococcus sp.; strain GC 4545): 2 µg/mL (≈ 1.33 µM)
- MIC Staphylococcus aureus-SMITH (GC 4543) (Staphylococcus sp.; strain GC 4543): 2 µg/mL (≈ 1.33 µM)
- MIC Staphylococcus haemolyticus (GC 4546) (Staphylococcus sp.; strain GC 4546): 2 µg/mL (≈ 1.33 µM)
- MIC Coagulase Negative Staphylococcus (GC 4547) (Staphylococcus sp.; strain GC 4547): 2 µg/mL (≈ 1.33 µM)
- MIC Coagulase Negative Staphylococcus (GC 4548) (Staphylococcus sp.; strain GC 4548): 1 µg/mL (≈ 0.664 µM)
- MIC Coagulase Negative Staphylococcus (GC 4549) (Staphylococcus sp.; strain GC 4549): 1 µg/mL (≈ 0.664 µM)
- MIC Coagulase Negative Staphylococcus (GC 4551) (Staphylococcus sp.; strain GC 4551): 1 µg/mL (≈ 0.664 µM)
- MIC Coagulase Negative Staphylococcus (GC 6257) (Staphylococcus sp.; strain GC 6257): 0.5 µg/mL (≈ 0.332 µM)
